From US20080280837A1, “Biologically Active Compounds with Anti-Angiogenic Properties” (priority 2004, published 2008)

Columns and labels:
SSTR-1 = target: T1, SSTR-1 (Homo sapiens, UniProt P30872); assay: Radioligand binding screen against somatostatin subtype SSTR-1; conditions: Table 8; read-out: Ki SSTR1
T1 construct: expressed in transfected cells
Description: (§1) Receptor membrane preparations containing the desired cloned receptor (for example cloned human somatostatin receptor subtype 5, SSTR5) and radio-labeled ligand (for example 3-[^125I]iodotyrosyl^11 Somatostatin-14)) were diluted at the concentration required for testing and according to the specific parameters associated with the selected receptor-ligand combination, including receptor Bmax, ligand Kd and any other parameters necessary to optimize the experimental conditions. When tested for competition activity to the reference ligand, “compound 1” was mixed with membrane suspension and the radiolabeled reference ligand (with or without an excess of cold ligand to the receptor for determination of non-specific binding) and incubated at the temperature required by internal standard operating procedures. Following incubation, the binding reaction was stopped by the addition of ice-cold washing buffer and filtered on appropriate filters, which are then counted. Data analysis and curve-fitting was performed with XLfit (IDBS).
(§2) 10 mM solutions of test compounds in 100% DMSO were prepared. ˜160 μl was used for each dilution (20 μl/well in triplicate).
(§3) A 1.25 mM assay stock was prepared by making a 1:8 dilution of the 10 mM solution. (To 30 μL of the 10 mM solution was added 210 μL milli-Q H2O. A 1:5 dilution series in milli-Q H2O was then prepared.
(§4) In primary screening experiments compounds were tested in duplicate for a particular concentration.

SSTR-2 = target: T2, SSTR-2 (Homo sapiens, UniProt P30874); assay: Radioligand binding screen against somatostatin subtype SSTR-2; conditions: Table 8; read-out: Ki SSTR2
T2 construct: expressed in transfected cells
Description: as §1, §2, §3, §4

SSTR-3 = target: T3, SSTR-3 (Homo sapiens, UniProt P32745); assay: Radioligand binding screen against somatostatin subtype SSTR-3; conditions: Table 8; shown where Ki could not be determined (NoModel); read-out: IC50 SSTR3 (in parentheses)
T3 construct: expressed in transfected cells
Description: as §1, §2, §3, §4

SSTR-4 = target: T4, SSTR-4 (Homo sapiens, UniProt P31391); assay: Radioligand binding screen against somatostatin subtype SSTR-4 (SST4 assay); conditions: Table 8; read-out: Ki SSTR4
T4 construct: expressed in transfected cells
Description: as §1, §2, §3
Assays were performed in triplicate at each concentration within the 1:5 dilution series: 250 μM, 50 μM, 10 μM, […], 0.4 μM, 0.08 μM, 0.016 μM, 0.0032 μM, etc. (for SST4 assay) and 125 μM, 10 μM, 2 μM, 1 μM, 0.5 μM, etc (for SST5 assay).
as §4

[1] = target: T5, Human SST5 somatostatin receptor (SSTR5) (Homo sapiens, UniProt P35346); assay: Filter plate assay for SST5 receptor, displacement of [125I]SST-14; type: binding; conditions: Table 8
T5 construct: expressed in transfected cells; host or cells: HEK-293 EBNA
Summary of the method: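 HEK-293 EBNA membranes expressing human SST5 (5.5 μg) incubated 60 min at 25 °C with 4 nM [125I]SST-14 and compound in pH 7.5 Tris/EGTA/MgCl2/sucrose buffer. Bound radioactivity collected on PEI-coated glass fiber filters and counted; triplicate 1:5 dilution series from 125 μM, non-specific binding with excess cold ligand.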

[2] = tested on: Human Umbilical Vein Endothelial Cells (HUVEC); assay: Endothelial cell proliferation assay (MTS); type: cell-based; conditions: 48 hrs
Description: Human Umbilical Vein Endothelial Cells (HUVEC from Clonetics) were plated in 96 well plates at 1000 cell per well in EGM-2 medium (Clonetics). Cells were grown overnight at 37° C. in 5% CO2. Fresh EGM-2 medium containing compound at the desired concentration was added to the wells and the cells allowed to grow for a further 48 hrs. A MTS (Promega) colorimetric assay was performed after 48 hrs to determine cell growth according to the manufacturers instructions. Results are presented in terms of percentage growth.

HUVEC tube formation = assay: Matrigel tube formation assay; type: cell-based, human; conditions: Homo sapiens, 22 h
Description: HUVEC (Clonetics) were plated in 96 well plates in EGM-2 media (Clonetics) at 2.5 to 3×10^4 cells per well. Cells of less than 6 passages were used in all studies. Wells were precoated with 50 μL growth factor containing Matrigel (Becton Dickinson). HUVEC were allowed to form tubes by incubation at 37° C. in 5% CO2 for 22 hrs. In test wells compound was added in the desired concentration. Photographic images of the wells ×4 magnification were used to determine size of the tubes, length of tubes and number of junctions using image analysis software.

in vitro = conditions: human, Caco-2
Description: The Caco-2 assay was performed according to the procedure described in the following cited article [Caco-2 Monolayers in Experimental and Theoretical Predictions of Drug Transport, Artursson P, Palm K, Luthman K., Adv. Drug Deliv. Rev., 2001, 46, 27-43].

[3] = tested on: MV522 human NSCLC tumour xenograft; assay: Nude mouse model of human MV522 non-small cell lung cancer tumours; type: in vivo, nude mice; conditions: group five: paclitaxel 16 mg/kg i.p. qdx5 alone
Description: Initial Maximum Tolerated Dose (MTD) studies were done in male nude mice to determine the appropriate intravenous dosing regimen for the MV522 human NSCLC tumour model. A range of doses between 0 and 50 mg/Kg for 28 days (qdx28) were tested. Mice were randomized into groups with 5 animals per group including vehicle control. Animals were weighed twice weekly starting on day one and observed daily for adverse reactions or toxicity due to the agent. MTD studies determined the selection of 20 mg/kg and 35 mg/kg for intravenous dosing once per day for 28 days in the MV522 human NSCLC tumour xenograft model.
Male nude mice (nu/nu) between 5 and 6 weeks of age weighing approximately 20 g were implanted subcutaneously (s.c) by trocar with fragments of MV522 human tumour carcinomas harvested from s.c growing tumours in host mice. MV-522 is a metastatic human lung adenocarcinoma line. When tumours reached approximately 72 mg in size animals were pair matched into treatment and control groups with 10 mice in each group. Each mouse was tagged and followed individually throughout the experiment.
“Compound 1” was administered i.v. in a saline vehicle from day one. Vehicle control group animals were administered saline i.v. There were nine treatment groups including the vehicle control group. […]
At the end of the treatment period the mice were weighed and sacrificed. Each tumour was excised and weighed and a mean actual tumour weight (mg) per group was calculated along with the mean actual volume (mm^3). […] Mean tumour regression was determined using the formula [1−(mean actual tumour weightFINAL/mean tumour weightDAY 1)×100%].

T3 sequence (P32745 whole entry): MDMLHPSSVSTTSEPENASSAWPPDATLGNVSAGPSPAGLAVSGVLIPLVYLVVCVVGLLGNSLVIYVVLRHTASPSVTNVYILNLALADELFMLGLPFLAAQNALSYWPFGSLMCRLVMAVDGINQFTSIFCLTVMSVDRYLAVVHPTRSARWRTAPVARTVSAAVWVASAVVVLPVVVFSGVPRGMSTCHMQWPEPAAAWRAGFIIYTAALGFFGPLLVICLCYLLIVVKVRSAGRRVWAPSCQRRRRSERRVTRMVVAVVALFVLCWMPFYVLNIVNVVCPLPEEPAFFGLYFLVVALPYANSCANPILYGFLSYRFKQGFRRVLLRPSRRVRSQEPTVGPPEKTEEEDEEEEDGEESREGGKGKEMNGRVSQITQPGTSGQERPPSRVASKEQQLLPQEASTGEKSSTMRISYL
T5 sequence (P35346 whole entry): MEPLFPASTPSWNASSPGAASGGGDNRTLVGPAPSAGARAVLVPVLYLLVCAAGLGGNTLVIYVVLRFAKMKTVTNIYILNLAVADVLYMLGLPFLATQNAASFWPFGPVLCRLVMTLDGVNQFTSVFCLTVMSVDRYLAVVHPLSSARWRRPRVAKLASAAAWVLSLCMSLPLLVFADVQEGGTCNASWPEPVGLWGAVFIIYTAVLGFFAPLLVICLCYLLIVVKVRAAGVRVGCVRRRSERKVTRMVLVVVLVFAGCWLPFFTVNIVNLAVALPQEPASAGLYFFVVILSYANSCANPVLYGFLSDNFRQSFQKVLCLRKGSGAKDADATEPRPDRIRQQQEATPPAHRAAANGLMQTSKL
T2 sequence (P30874 whole entry): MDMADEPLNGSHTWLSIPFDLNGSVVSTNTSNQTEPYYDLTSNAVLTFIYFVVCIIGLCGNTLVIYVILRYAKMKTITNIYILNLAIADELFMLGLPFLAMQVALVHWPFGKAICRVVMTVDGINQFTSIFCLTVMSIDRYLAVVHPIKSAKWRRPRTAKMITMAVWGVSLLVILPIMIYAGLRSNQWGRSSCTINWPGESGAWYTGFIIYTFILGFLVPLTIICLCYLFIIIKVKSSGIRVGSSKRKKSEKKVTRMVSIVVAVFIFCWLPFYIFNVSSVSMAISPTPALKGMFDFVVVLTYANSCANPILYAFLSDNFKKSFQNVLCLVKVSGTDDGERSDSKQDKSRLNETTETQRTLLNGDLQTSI
T1 sequence (P30872 whole entry, species assumed): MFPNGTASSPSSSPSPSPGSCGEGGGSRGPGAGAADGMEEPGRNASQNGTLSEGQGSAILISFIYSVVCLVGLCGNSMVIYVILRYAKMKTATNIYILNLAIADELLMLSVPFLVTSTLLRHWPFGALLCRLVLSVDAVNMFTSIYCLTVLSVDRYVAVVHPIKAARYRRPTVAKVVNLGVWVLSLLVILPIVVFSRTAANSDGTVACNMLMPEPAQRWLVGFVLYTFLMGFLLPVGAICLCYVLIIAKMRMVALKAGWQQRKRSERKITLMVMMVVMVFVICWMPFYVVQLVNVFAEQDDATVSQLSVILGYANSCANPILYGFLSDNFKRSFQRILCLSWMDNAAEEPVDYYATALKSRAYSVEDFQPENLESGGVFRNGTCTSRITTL
T4 sequence (P31391 whole entry): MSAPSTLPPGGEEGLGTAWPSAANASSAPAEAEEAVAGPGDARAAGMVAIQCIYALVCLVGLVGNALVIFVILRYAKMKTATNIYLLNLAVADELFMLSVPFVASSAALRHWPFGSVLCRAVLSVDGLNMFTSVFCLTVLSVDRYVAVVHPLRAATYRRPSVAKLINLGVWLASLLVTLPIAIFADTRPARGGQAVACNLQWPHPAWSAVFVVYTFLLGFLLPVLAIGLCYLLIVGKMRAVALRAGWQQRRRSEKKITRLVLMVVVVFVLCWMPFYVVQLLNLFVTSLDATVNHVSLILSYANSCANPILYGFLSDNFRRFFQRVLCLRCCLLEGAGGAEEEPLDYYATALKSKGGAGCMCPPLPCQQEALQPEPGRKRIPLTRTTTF

| SMILES | Ki (SSTR-1) | Ki (SSTR-2) | IC50 (SSTR-3) | Ki (SSTR-4) | IC50 ([1]; shown where Ki could not be determined (NoModel), read-out: IC50 SSTR5 (in parentheses)) | Percent cell growth at 125 µM [2] | Percent cell growth at 250 µM [2] | EC50 (HUVEC tube formation) | Ki [1] | Papp (in vitro) | Tumour growth inhibition (TGI) [3] |
| --- | --- | --- | --- | --- | --- | --- | --- | --- | --- | --- | --- |
| CS[C@@H]1O[C@H](COCc2ccc(Cl)cc2)[C@@H](O)[C@@H](OCc2ccc3ccccc3c2)[C@H]1NC(=O)CCN [Compound 9] | > 10000 nM | 490 nM | 0.8 nM | 463 nM | 1.1 nM | -86% | -78% | 50000 nM |  |  |  |
| CS[C@@H]1O[C@H](COCc2ccc3ccccc3c2)[C@@H](O)[C@@H](OCc2ccc3ccccc3c2)[C@H]1NC(=O)CCN [Compound 10] | > 10000 nM | 726 nM | 228 nM |  |  | -85% | -63% | 125000 nM | 220 nM |  |  |
| OC[C@@H](O)[C@@H](O)[C@H](O)[C@H](O)CO [mannitol, reference compound] |  |  |  |  |  |  |  |  |  | 0.813 ×10⁻⁶ cm/s |  |
| CC(=O)O[C@H]1C(=O)[C@@]2(C)[C@H]([C@H](OC(=O)c3ccccc3)[C@]3(O)C[C@H](OC(=O)[C@H](O)[C@@H](NC(=O)c4ccccc4)c4ccccc4)C(C)=C1C3(C)C)[C@]1(OC(C)=O)CO[C@@H]1C[C@@H]2O [paclitaxel, reference compound] |  |  |  |  |  |  |  |  |  |  | 42.1% |
